# Data as given in PubChem BioAssay (NCI).
#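 Briefly, cells in 96-well plates were exposed to five compound concentrations for 48 h, and endpoints were estimated by linear interpolation. Abbreviation: GI50, concentration required for 50% inhibition of growth. TGI marks complete inhibition of growth.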
# What was measured:
# Assay in all cases: DTP human tumour cell line panel, 48 h
# [1] = test system: SK-OV-3 ovarian
# [2] = test system: IGROV1 ovarian
# [3] = test system: HCT-15 colon
# [4] = test system: MOLT-4 leukemia
# [5] = test system: A549 NSCLC
# [6] = test system: SK-MEL-5 melanoma
# [7] = test system: HCC-2998 colon
# [8] = test system: 786-0 renal
# [9] = test system: SNB-75 CNS
# [10] = test system: OVCAR-5 ovarian
# [11] = test system: PC-3 prostate
# [12] = test system: MDA-MB-435
# [13] = test system: SR leukemia
# [14] = test system: OVCAR-3 ovarian
# [15] = test system: NCI-H522 lung
# [16] = test system: SK-MEL-28 melanoma
# [17] = test system: UACC-62 melanoma
# [18] = test system: MCF7 breast
# [19] = test system: NCI-H226 lung
# [20] = test system: ACHN renal
# [21] = test system: HS 578T breast
# [22] = test system: HCT-116 colon
# [23] = test system: SF-539 CNS
# [24] = test system: COLO 205 colon
# [25] = test system: NCI-H460 lung
# [26] = test system: OVCAR-4 ovarian
# [27] = test system: SW-620 colon
# [28] = test system: SF-268 CNS
# [29] = test system: HL-60(TB) leukemia
# [30] = test system: CCRF-CEM leukemia
# [31] = test system: SK-MEL-2 melanoma
# [32] = test system: CAKI-1 renal
# [33] = test system: SF-295 CNS
# [34] = test system: UO-31 renal
# [35] = test system: T-47D breast
# [36] = test system: RXF 393 renal
# [37] = test system: HOP-62 NSCLC
# [38] = test system: A498 renal
# [39] = test system: SN12C renal
# [40] = test system: K-562 leukemia
# [41] = test system: NCI-H23 lung
# [42] = test system: HOP-92 NSCLC
# [43] = test system: HT29 colon
# [44] = test system: BT-549 breast
# [45] = test system: RPMI-8226 leukemia
# [46] = test system: SNB-19 CNS
# [47] = test system: TK-10 renal
# [48] = test system: NCI/ADR-RES ovarian
# [49] = test system: U251 CNS
# [50] = test system: M14 melanoma
# [51] = test system: UACC-257 melanoma
# [52] = test system: EKVX NSCLC
# [53] = test system: OVCAR-8 ovarian
# [54] = test system: LOX IMVI melanoma
# [55] = test system: DU-145 prostate
# [56] = test system: MDA-MB-231 breast
# [57] = test system: KM12 colon
compound,measurement,setting,value
Cc1ccc(C2C3Cc4ccccc4C3=NN2c2ccc(S(=O)(=O)NC(=O)NC3CCCCC3)cc2)cc1 (centres undefined),GI50,[1],20.4 µM
same,TGI,[1],61.3 µM
same,GI50,[2],5.75 µM
same,TGI,[2],24.5 µM
same,GI50,[3],19.4 µM
same,TGI,[3],76.7 µM
same,GI50,[4],7.69 µM
same,TGI,[4],> 100 µM
same,GI50,[5],12 µM
same,TGI,[5],27.5 µM
same,GI50,[6],14.5 µM
same,TGI,[6],30.3 µM
same,GI50,[7],12.6 µM
same,TGI,[7],28.6 µM
same,GI50,[8],28.6 µM
same,TGI,[8],> 100 µM
same,GI50,[9],44 µM
same,TGI,[9],> 100 µM
same,GI50,[10],27.3 µM
same,TGI,[10],55.7 µM
same,GI50,[11],9.66 µM
same,TGI,[11],26.2 µM
same,GI50,[12],14.6 µM
same,TGI,[12],41.3 µM
same,GI50,[13],6.25 µM
same,TGI,[13],32.1 µM
same,GI50,[14],15 µM
same,TGI,[14],37.1 µM
same,GI50,[15],5.92 µM
same,TGI,[15],23.5 µM
same,GI50,[16],19.9 µM
same,TGI,[16],38 µM
same,GI50,[17],12.7 µM
same,TGI,[17],28.6 µM
same,GI50,[18],13.5 µM
same,TGI,[18],> 100 µM
same,GI50,[19],21.2 µM
same,TGI,[19],54.6 µM
same,GI50,[20],14.4 µM
same,TGI,[20],28.5 µM
same,GI50,[21],23.6 µM
same,TGI,[21],62.7 µM
same,GI50,[22],15.5 µM
same,TGI,[22],> 100 µM
same,GI50,[23],20.2 µM
same,TGI,[23],40.7 µM
same,GI50,[24],14.7 µM
same,TGI,[24],33.1 µM
same,GI50,[25],21.6 µM
same,TGI,[25],> 100 µM
same,GI50,[26],16.6 µM
same,TGI,[26],39.2 µM
same,GI50,[27],16.6 µM
same,TGI,[27],40.1 µM
same,GI50,[28],25.3 µM
same,TGI,[28],> 100 µM
same,GI50,[29],22.9 µM
same,TGI,[29],59.7 µM
same,GI50,[30],8.33 µM
same,TGI,[30],76.4 µM
same,GI50,[31],18.6 µM
same,TGI,[31],38.6 µM
same,GI50,[32],16 µM
same,TGI,[32],42.1 µM
same,GI50,[33],17.9 µM
same,TGI,[33],54.2 µM
same,GI50,[34],11 µM
same,TGI,[34],26.1 µM
same,GI50,[35],32.5 µM
same,TGI,[35],> 100 µM
same,GI50,[36],18.7 µM
same,TGI,[36],54.5 µM
same,GI50,[37],45.7 µM
same,TGI,[37],> 100 µM
same,GI50,[38],22.4 µM
same,TGI,[38],39.6 µM
same,GI50,[39],16.6 µM
same,TGI,[39],33.1 µM
same,GI50,[40],11.5 µM
same,TGI,[40],52.3 µM
same,GI50,[41],15.2 µM
same,TGI,[41],37.1 µM
same,GI50,[42],11.6 µM
same,TGI,[42],27.6 µM
same,GI50,[43],24.5 µM
same,TGI,[43],> 100 µM
same,GI50,[44],18 µM
same,TGI,[44],42.9 µM
same,GI50,[45],5.44 µM
same,TGI,[45],40.8 µM
same,GI50,[46],21.3 µM
same,TGI,[46],64 µM
same,GI50,[47],11.7 µM
same,TGI,[47],28.4 µM
same,GI50,[48],13.4 µM
same,TGI,[48],35.1 µM
same,GI50,[49],13.2 µM
same,TGI,[49],30.4 µM
same,GI50,[50],33.5 µM
same,TGI,[50],> 100 µM
same,GI50,[51],20.2 µM
same,TGI,[51],39.7 µM
same,GI50,[52],20.2 µM
same,TGI,[52],67.1 µM
same,GI50,[53],17.4 µM
same,TGI,[53],43.6 µM
same,GI50,[54],17.8 µM
same,TGI,[54],44.2 µM
same,GI50,[55],23.1 µM
same,TGI,[55],78.9 µM
same,GI50,[56],28.2 µM
same,TGI,[56],> 100 µM
same,GI50,[57],11.3 µM
same,TGI,[57],39.1 µM
